Laboratory results as given in US20100324058A1 (Obschestvo S Organichennoi Otvetsttvennoctiyou "Bionika", priority 2007, published 2010).
One block for each molecule: values may come before it.

Tests used:
[1] = tested on: experimental animals; conditions: lethal dose of argothroban after clinical testing; cited from earlier work
[2] = cited from earlier work
[3] = molecular target: T1, thrombin (Homo sapiens, UniProt P00734); assay: Effect of test compounds on thrombin activity: hydrolysis rate of chromogenic (Chromozim TH) or fluorogenic (BOC-Ala-Pro-Arg-AMC) substrate; assay type: biochemical; conditions: for inhibition at 0.025 µM: concentration of compound 25 nM
Source text: The effect of the synthesized substances on thrombin activity was studied by measuring the hydrolysis rate of specific low molecular weight substrates with thrombin in an aqueous buffering solution in the absence and presence of these compounds. One of these substrates was chromogenic substrate Chromozim TH (CTH): N-(p-Tosyl)-Gly-Pro-Arg-pNA [Sonder S A, Fenton J W 2nd. Thrombin Specificity with Tripeptide Chromogenic Substrates: Comparison of Human and Bovine Thrombins with and without Fibrinogen Clotting Activities. Clin. Chem., 1986, 32(6):934-937]. Another substrate that was used in a number of experiments was fluorogenic substrate BOC-Ala-Pro-Arg-AMC (S), wherein BOC is butoxycarbonyl residue, and AMC is 7-amino-4-methylcoumaryl [Kawabata S, Miura T, Morita T, Kato H, Fujikawa K, Ivanaga S, Takada K, Kimura T, Sakakibara S. Highly Sensitive peptide-4-methylcoumaryl-7-amide Substrates for Blood-Clotting Proteases and Trypsin. Eur. J. Biochem., 1988, 172(1):17-25].
The holes of a common 96-hole board were filled with a buffer containing 140 mM of NaCl, 20 mM of HEPES, and 0.1% polyethylene glycol (Mw=6,000), at pH=8.0. […] When a chromogenic substrate was used, accumulation of the colored reaction product—para-nitroaniline—was followed on a spectrophotometric Molecular Devices board reader (Thermomax, U.S.), measuring the increase in optical density on the 405 nm wavelength. […] The reaction kinetics was registered on a fluorometric Titertek Fluoroskan board reader (LabSystem, Finland).
The initial reaction rate was measured as the tangent of the kinetic curve inclination angle on a straight section (first 10 to 15 minutes of registration). Reaction rate without an inhibitor was a ssumed to be 100%. The mean arithmetic value of two independent measurements was used as the end result.

[4] = molecular target: T1, thrombin; conditions: literature, PDB complex; cited from earlier work
[5] = concentration of compound 0.25 mcM
[6] = concentration of compound 0.5 mcM
[7] = concentration of compound 2.5 mcM

SMILES: CC1CNc2c(cccc2S(=O)(=O)N[C@@H](CCCNC(=N)N)C(=O)N2CC[C@@H](C)C[C@@H]2C(=O)O)C1 (stereo partly drawn) [Argatroban]
LD50 [1]: 475 mg/kg | T1/2 in plasma [2]: 36 min

Hydrolysis rate inhibition, % ([3]; concentration of compound 0.1 mcM): 56% | Hydrolysis rate inhibition, % [3, 5]: 62% | Hydrolysis rate inhibition, % [3, 6]: 75% | Hydrolysis rate inhibition, % ([3]; concentration of compound 1.75 mcM): 88% | Hydrolysis rate inhibition, % ([3]; concentration of compound 3.75 mcM): 90% | Hydrolysis rate inhibition, % ([3]; concentration of compound 25 mcM): 95% | Hydrolysis rate inhibition, % ([3]; concentration of compound 250 mcM): 99%
SMILES: Nc1cc[n+](CCOc2cccc(NS(=O)(=O)c3ccccc3)c2)cc1 [HC_041s_IOC]

SMILES: Cc1cc(OCC[n+]2ccsc2N)cc(OS(=O)(=O)c2ccccc2Cl)c1.[I-] [HC_045s_IOC]
Hydrolysis rate inhibition, % ([3]; concentration of compound 0.125 mcM): 10% | Hydrolysis rate inhibition, % [3, 5]: 18% | Hydrolysis rate inhibition, % [3, 6]: 42% | Hydrolysis rate inhibition, % ([3]; concentration of compound 1.25 mcM): 66% | Hydrolysis rate inhibition, % [3, 7]: 87%

SMILES: Cc1cc(OCCSC(=N)N)cc(OS(=O)(=O)c2ccccc2Cl)c1 [HC_046s_IOC]
inhibition at 0.00125 µM ([3]; concentration of compound 1.25 nM): 18% | inhibition at 0.0025 µM ([3]; concentration of compound 2.5 nM): 39% | inhibition at 0.005 µM ([3]; concentration of compound 5 nM): 59% | inhibition at 0.0125 µM ([3]; concentration of compound 12.5 nM): 77% | inhibition at 0.025 µM [3]: 92%

SMILES: Cc1cc(OCC[n+]2ccc(N)nc2)cc(OS(=O)(=O)c2ccccc2)c1.[I-] [HC_047s_IOC]
inhibition at 0.01 µM ([3]; concentration of compound 10 nM): 8% | inhibition at 0.025 µM [3]: 10% | inhibition at 0.05 µM ([3]; concentration of compound 50 nM): 14% | Hydrolysis rate inhibition, % [3, 5]: 36% | Hydrolysis rate inhibition, % [3, 6]: 49% | Hydrolysis rate inhibition, % ([3]; concentration of compound 1.85 mcM): 84% | Hydrolysis rate inhibition, % [3, 7]: 90%

SMILES: N=c1ccc2cc3ccc(N)cc3[nH]c-2c1 [Proflavin]
Kd [4]: ~10 µM
